In patent US9388149B2, “Disubstituted 3,4-diamino-3-cyclobutene-1,2-dione compounds for use in the treatment of chemokine-mediated diseases” (GALDERMA RESEARCH & DEVELOPMENT, priority 2011, dated 2016):
pIC50: −log10 of the molar value.

What was measured:
CCR8 = CCR8 (Homo sapiens (Human), UniProt P51685); assay: Calcium flux on Chem-1 cells expressing the chemokine receptor (FLIPR TETRA), antagonist mode; assay type: cell-based; details: antagonist activity, reference agonist at AC80
Procedure: (§3) Measurement of calcium flux on cells: The experiments were carried out on the FLIPR TETRA® platform from Molecular Devices.
(§4) Each cell line expressing a chemokine receptor was established on the basis of the Chem-1 cell stably expressing the recombinant form of the chemokine receptor and also an associated G protein, with the aim of coupling the receptor to the calcium signalling pathway.
(§5) 21 receptors belonging to the chemokine receptor family (CCRs and CXCRs) were analyzed.

[1] = Metabolic stabilities in hepatic microsomes; details: hepatic microsomes, pH 7.4, Half-life time (min), hepatic microsomes 0.5 mg/ml protein, compound 1 μM, sampling up to 60 minutes
Procedure: Hepatic microsomes (Becton Dickinson) were incubated at a protein concentration of 0.5 mg/ml in the reaction medium.
The reaction medium of the microsomes was composed of phosphate buffer, pH: 7.4 at 100 mM, of MgCl2 at 100 mM (50/50), of an ATP-generating system composed of a mixture of nicotinamide adenine diphosphate (NADP), of glucose-6-phosphate (G6P) at 1 mg/ml and of glucose-6-phosphate dehydrogenase (G6PDH) at 4 U/ml. The compounds were tested at 1 μM (0.1% DMSO).
The samples of incubation medium after addition of the microsomes were taken at times 5, 10, 15, 30 and 60 minutes. At each time, the metabolic reaction was stopped by adding methanol (1 volume incubation medium/3 volumes of methanol). The disappearance of the parent product was measured by LC/MS/MS analysis. The time for which 50% of parent product disappeared (T1/2) was calculated from the kinetics of disappearance of the parent product as a function of time.

CXCR2 receptor = CXCR2 receptor (Homo sapiens (Human), UniProt P25025); assay: β-arrestin recruitment test, PathHunter HEK293-CXCR2 cells stimulated with CXCL8; assay type: cell-based; details: inhibition of CXCL8 (10 nM) induced β-arrestin 2 recruitment; *9999 signifies not active
Procedure: (§1) The in vitro affinity of the compounds of the present invention for the CXCR1 and CXCR2 receptors was determined on a functional test of the β-arrestin recruitment after receptor activation type.
(§2) β-Arrestin recruitment test: “PathHunter HEK293-CXCR2” or “U2OS hCXCR1 β-arrestin” cells (DiscoveRx Corporation) were seeded overnight at 10 000 cells/well (384-well format) in 20 μl of Opti MEM I medium. A preincubation with the antagonist or the vehicle for 30 min at 37° C. and 5% CO2 was followed by 60 minutes of stimulation with CXCL8 at 37° C. and 5% CO2. The cells were then placed at ambient temperature for 30 minutes. The PathHunter detection reagent (DiscoveRx Corporation) was added. […] The data were analyzed by means of a non-linear curve procedure using the XLFit4 exploitation software (IDBS) and the IC50 values were determined.

FPR1 = FPR1 (Homo sapiens (Human), UniProt P21462); assay: Calcium flux on Chem-1 cells expressing the receptor (FLIPR TETRA), antagonist mode; assay type: cell-based; details: antagonist activity, reference agonist at AC80
Procedure: as §3, §4

[2] = tested on: receptors of CXCR1 and CXCR2 type; details: pseudo-irreversible dissociation, literature value; cited from earlier work
[3] = tested on: panel of 20 chemokine receptors; assay: Receptor profiling on a panel of 20 chemokine receptors (calcium flux); details: result in words
Procedure: as §3, §4

[4] = Metabolic stabilities in hepatocytes; assay type: in vitro ADME; details: compound 1 μM, sampling up to 24 hours; for half-life at 1 μM: human, hepatocytes, read-out: Half-life time
Procedure: The human hepatocytes were supplied by Biopredic in 24-well plates.
The samples of incubation medium after addition of the test compound were taken at times t=0, 1, 2, 4, 6 and 24 hours.

CCR7 = CCR7 (Homo sapiens (Human), UniProt P32248); assay: Calcium flux on Chem-1 cells expressing the chemokine receptor (FLIPR TETRA), antagonist mode; assay type: cell-based; details: antagonist activity, reference agonist at AC80
Procedure: as §3, §4, §5

CCR6 = CCR6 (Homo sapiens (Human), UniProt P51684); assay: as above; assay type: cell-based; details: antagonist activity, reference agonist at AC80
Procedure: as §3, §4, §5

CCR4 = CCR4 (Homo sapiens (Human), UniProt P51679); assay: as above
Procedure: as §3, §4, §5

CXCR3 = CXCR3 (Homo sapiens (Human), UniProt P49682); assay: as above; details: IC50 CXCR3, antagonist activity, reference agonist at AC80
Procedure: as §3, §4, §5

CXCR1 receptor = CXCR1 receptor (Homo sapiens (Human), UniProt P25024); assay: β-arrestin recruitment test, U2OS hCXCR1 β-arrestin cells stimulated with CXCL8; assay type: cell-based; details: inhibition of CXCL8 (10 nM) induced β-arrestin 2 recruitment; *9999 signifies not active
Procedure: as §1, §2

Chain of CXCR3 (P49682 whole entry): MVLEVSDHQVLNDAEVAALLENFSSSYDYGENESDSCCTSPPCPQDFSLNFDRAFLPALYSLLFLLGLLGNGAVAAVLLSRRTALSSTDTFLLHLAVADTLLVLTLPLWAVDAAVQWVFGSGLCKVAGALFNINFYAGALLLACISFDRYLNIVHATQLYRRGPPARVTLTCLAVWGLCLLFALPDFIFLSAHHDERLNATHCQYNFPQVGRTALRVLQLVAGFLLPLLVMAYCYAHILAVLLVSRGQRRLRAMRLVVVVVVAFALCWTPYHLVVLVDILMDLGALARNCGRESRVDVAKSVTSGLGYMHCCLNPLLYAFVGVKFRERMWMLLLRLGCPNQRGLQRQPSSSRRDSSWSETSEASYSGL
Chain of CCR6 (P51684 whole entry): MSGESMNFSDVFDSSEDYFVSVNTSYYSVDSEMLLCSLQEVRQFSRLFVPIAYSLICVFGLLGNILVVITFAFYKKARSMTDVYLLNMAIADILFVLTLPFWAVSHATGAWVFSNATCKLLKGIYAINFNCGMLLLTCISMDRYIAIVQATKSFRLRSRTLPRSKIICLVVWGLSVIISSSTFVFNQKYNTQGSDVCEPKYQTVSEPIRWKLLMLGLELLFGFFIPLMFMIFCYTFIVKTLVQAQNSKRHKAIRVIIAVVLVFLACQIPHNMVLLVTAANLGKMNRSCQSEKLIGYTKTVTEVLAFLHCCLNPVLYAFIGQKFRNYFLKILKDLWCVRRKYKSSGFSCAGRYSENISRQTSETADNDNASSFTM
Chain of CCR4 (P51679 whole entry): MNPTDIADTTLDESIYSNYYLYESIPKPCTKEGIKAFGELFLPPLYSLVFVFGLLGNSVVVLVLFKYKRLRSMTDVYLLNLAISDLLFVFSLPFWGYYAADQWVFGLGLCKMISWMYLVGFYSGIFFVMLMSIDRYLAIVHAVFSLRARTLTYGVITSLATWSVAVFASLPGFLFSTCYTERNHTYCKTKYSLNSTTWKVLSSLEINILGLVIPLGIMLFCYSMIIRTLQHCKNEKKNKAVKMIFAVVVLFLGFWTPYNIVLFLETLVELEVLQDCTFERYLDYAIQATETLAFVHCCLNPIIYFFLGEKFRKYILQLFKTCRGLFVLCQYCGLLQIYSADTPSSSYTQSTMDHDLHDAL
Chain of CXCR2 receptor (P25025 whole entry): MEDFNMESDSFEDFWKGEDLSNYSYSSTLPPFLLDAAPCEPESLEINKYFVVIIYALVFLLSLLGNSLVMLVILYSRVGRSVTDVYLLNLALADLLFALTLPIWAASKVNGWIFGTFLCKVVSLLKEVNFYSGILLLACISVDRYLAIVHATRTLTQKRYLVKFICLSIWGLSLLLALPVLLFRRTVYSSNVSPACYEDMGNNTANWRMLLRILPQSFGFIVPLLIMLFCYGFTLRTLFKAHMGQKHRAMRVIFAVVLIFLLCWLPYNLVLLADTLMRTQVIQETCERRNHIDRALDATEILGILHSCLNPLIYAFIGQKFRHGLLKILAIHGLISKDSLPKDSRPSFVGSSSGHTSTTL
Chain of CXCR1 receptor (P25024 whole entry): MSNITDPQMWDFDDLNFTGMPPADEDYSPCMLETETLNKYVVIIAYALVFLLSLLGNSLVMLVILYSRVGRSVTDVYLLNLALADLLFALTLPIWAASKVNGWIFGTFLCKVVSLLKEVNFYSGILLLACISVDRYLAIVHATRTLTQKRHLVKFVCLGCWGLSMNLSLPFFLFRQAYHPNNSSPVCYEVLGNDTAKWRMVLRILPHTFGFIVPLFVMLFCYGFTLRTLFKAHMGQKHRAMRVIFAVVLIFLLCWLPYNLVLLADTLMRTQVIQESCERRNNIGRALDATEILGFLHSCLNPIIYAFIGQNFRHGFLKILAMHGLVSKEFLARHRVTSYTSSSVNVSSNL
Chain of CCR8 (P51685 whole entry): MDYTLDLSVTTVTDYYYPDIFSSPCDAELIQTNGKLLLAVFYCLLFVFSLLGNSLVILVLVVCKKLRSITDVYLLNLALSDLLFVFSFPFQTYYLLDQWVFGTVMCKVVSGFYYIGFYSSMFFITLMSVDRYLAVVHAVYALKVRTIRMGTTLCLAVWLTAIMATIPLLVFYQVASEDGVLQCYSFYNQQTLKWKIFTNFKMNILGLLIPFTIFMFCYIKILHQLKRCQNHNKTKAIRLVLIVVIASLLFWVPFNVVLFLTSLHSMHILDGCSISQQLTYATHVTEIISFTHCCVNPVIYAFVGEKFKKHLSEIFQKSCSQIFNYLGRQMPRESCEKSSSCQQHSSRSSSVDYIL
Chain of CCR7 (P32248 25-378): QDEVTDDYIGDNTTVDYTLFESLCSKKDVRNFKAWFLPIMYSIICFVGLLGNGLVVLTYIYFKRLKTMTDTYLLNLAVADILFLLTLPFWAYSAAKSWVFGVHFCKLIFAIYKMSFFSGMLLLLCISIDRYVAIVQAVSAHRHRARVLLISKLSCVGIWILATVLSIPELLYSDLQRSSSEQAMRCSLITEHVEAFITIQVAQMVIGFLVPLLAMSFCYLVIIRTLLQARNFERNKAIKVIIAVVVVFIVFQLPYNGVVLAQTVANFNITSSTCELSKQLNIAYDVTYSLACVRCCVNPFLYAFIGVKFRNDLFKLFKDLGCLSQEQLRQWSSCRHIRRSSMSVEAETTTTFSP
Chain of FPR1 (P21462 whole entry): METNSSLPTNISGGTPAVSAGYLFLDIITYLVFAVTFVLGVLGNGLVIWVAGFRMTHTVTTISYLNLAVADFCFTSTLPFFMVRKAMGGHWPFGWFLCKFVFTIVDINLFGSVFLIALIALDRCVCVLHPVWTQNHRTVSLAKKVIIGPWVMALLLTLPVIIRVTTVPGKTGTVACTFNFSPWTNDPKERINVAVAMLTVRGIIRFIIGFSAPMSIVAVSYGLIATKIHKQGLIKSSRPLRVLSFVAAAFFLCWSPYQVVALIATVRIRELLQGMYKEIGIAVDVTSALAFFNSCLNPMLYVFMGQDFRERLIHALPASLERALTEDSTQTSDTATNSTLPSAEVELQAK

SMILES | pIC50 (CCR8) | half-life at 1 μM [1] [min] | IC50 (CXCR2 receptor) [nM] | pIC50 (FPR1) | dissociation time [2] | activity on the chemokine receptors of the panel (CCR4, CCR6, CCR7, CCR8, CXCR3, FPR1) [3] | half-life at 1 μM [4] [min] | pIC50 (CCR7) | pIC50 (CCR6) | pIC50 (CCR4) | pIC50 (CXCR3) | Half-life time ([4]; human hepatocytes) [min] | IC50 (CXCR1 receptor) [nM]
Cc1ccc(C(Nc2c(Nc3cccc(C(=O)N(C)C)c3O)c(=O)c2=O)C2CCCS2)o1 (single isomer, unassigned) [2 (diastereoisomer 2), 2-Hydroxy-N,N-dimethyl-3-(2-{[(5-methylfuran-2-yl)-(tetrahydrothiophen-2-yl)methyl]amino}-3,4-dioxo-cyclobut-1-enylamino)benzamide] | 6.21 | 11 | 35 | 5.19 |  |  |  |  |  |  |  |  | 
CC[C@@H](Nc1c(Nc2cccc(C(=O)N(C)C)c2O)c(=O)c1=O)c1ccc(C)o1 [SCH-527123] |  |  |  |  | about 22 h | inactive or not very active at all |  |  |  |  |  |  | 
Cc1ccc(C(Nc2c(Nc3cccc(C(=O)N(C)C)c3O)c(=O)c2=O)C2(C)CCCO2)o1 (single isomer, unassigned) [Example 1 (Enantiomer 2 of diastereoisomer 2), 2-Hydroxy-N,N-dimethyl-3-(2-{[(5-methylfuran-2-yl)-(2-methyltetrahydrofuran-2-yl)methyl]amino}-3,4-dioxo-cyclobut-1-enylamino)benzamide] |  |  | 53 |  |  |  | 300 | 5.06 | 8.70 | 6.39 | 8.89 |  | 
Cc1ccc(C(Nc2c(Nc3cccc(C(=O)N(C)C)c3O)c(=O)c2=O)C2(C)CCCO2)o1 (single isomer, unassigned) [1 (diastereoisomer 2), 2-hydroxy-N,N-dimethyl-3-(2-{[(5-methylfuran-2-yl)-(2-methyltetrahydrofuran-2-yl)methyl]amino}-3,4-dioxo-cyclobut-1-enylamino)benzamide] |  | 27 | 94 |  |  |  |  |  | 8.66 |  | 7.26 | 539 | 
COC(=O)CN(C)C(=O)c1cccc(Nc2c(N[C@@H](c3ccc(C)o3)C3CCCS3)c(=O)c2=O)c1O (single isomer, unassigned) [Example 19] |  | 8 | 20 |  |  |  | 214 |  | 7.96 | 8.09 | 6.29 |  | 42
Cc1ccc(C(Nc2c(Nc3ccc(Cl)c(S(=O)(=O)N4CCN(C)CC4)c3O)c(=O)c2=O)C2CCCS2)o1 (single isomer, unassigned; (-)) [Example 22, (−)-3-[4-chloro-2-hydroxy-3-(4-methylpiperazine-1-sulfonyl)phenylamino]-4-{[(5-methylfuran-2-yl)-(tetrahydrothiophen-2-yl)methyl]amino}cyclobut-3-ene-1,2-dione] |  | 7 | 17 |  |  |  | 49 |  |  | 8.03 | 6.82 |  | 30
